Data taken from patent US20230234936A1, “COMPOUND FOR TARGETING AND DEGRADING PROTEIN, AND PREPARATION METHOD THEREFOR AND USE THEREOF” (SHANGHAI LEADINGTAC PHARMACEUTICAL CO., LTD., priority 2020, published 2023).

Experiments:
IRAK4 kinase = target: T1, IRAK4 kinase (Homo sapiens, UniProt Q9NWZ3); experiment: IRAK4 kinase activity test (KinEASE-STK S1 HTRF kit); type: biochemical; conditions: 2.5 nM kinase, 1 μM biotinylated polypeptide substrate, 7 μM ATP, 37° C. 120 min
T1 sequence (Q9NWZ3 1-460): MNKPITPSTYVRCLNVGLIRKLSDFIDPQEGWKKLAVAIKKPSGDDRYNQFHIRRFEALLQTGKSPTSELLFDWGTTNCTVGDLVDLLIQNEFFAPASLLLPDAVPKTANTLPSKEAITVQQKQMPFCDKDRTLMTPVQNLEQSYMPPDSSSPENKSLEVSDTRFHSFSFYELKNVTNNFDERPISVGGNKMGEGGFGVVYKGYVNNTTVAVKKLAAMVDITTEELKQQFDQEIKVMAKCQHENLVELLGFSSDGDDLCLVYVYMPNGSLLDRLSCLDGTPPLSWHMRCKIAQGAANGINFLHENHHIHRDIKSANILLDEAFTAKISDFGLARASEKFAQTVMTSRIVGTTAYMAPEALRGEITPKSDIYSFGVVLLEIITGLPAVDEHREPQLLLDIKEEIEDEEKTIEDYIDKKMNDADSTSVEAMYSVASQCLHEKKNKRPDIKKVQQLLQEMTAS
Outline: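 Compound in DMSO, serially diluted to 10000–0.038 nM final, incubated with 2.5 nM kinase, 1 μM biotinylated peptide substrate and 7 μM ATP at 37° C for 120 min. Eu-anti-phospho-Ser/Thr antibody plus streptavidin-XL665 stopped the reaction (1 h RT). HTRF 665/620 nm ratio gave % inhibition versus control; IC50 from nonlinear log-concentration fit.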

[1] = tested on: Interleukin-6 (IL-6) in LPS-induced human PBMC; experiment: Cytokine secretion of LPS-induced human PBMC, IL-6 AlphaLISA detection; type: cell-based; conditions: inhibition of IL-6, compound 1 hour or 20 hours, then LPS 100 ng/mL 5 hours
Description: Frozen human PBMC (Milestone, PB010C) was resuspended to RPMI 1640 medium (Gibco, A1049101) after resuscitation, supplemented with 10% fetal bovine serum (Gibco, 10099141), 100 U/mL penicillin and 100 μg/mL streptomycin (Gibco, 15140122). On the same day, 150 μL of PBMC was spread in each well of a 96-well transparent cell plate (Labserv, 310109008), so that the cell density was 2×10^5 cells/well. Then 50 μL diluted compound solution was added to the corresponding cell-covered wells to make the final concentration of the compound in the range of 0.026-10000 nM. The final concentration of DMSO was 0.25%. After the drug-treated cell plate was cultured at 37° C. for 1 hour or 20 hours in a 5% CO2 incubator, 10 μL LPS (0111:B4) (Sigma, L4391) was added with a final concentration of 100 ng/mL. The cell plate was again placed in a 5% CO2 incubator at 37° C. for 5 hours, centrifuged at 2000 rpm for 10 minutes, and 100 μL cell supernatant was taken from each well and transferred to a new 96-well transparent cell plate for cytokine concentration test, which was frozen at −80° C. to be tested.
The concentration of IL-6 in the supernatant of LPS-induced human PBMC cells was determined using interleukin-6 (IL-6) AlphaLISA detection kit (PerkinElmer, AL223 C).
According to the product instructions, IL-6 standard solutions with different concentrations were prepared in the concentration range of […]. 2 μL of IL-6 standard solution at various concentrations and the cell supernatant sample to be tested were taken, respectively added to white 384 well plates (PerkinElmer, 6007299), then a mixed solution of 8 μL of 5× anti-IL-6 receptor beads (final concentration: 10 μg/mL) and biotin-labeled anti-IL-6 antibody (final concentration 1 nM) was added to each well, and incubated at 23° C. for 60 minutes. Finally, 10 μL of 2× streptavidin-labeled donor beads (final concentration: 40 μg/mL) were added to each well and incubated at 23° C. for 30 minutes in the absent of light. After the incubation, the AlphaLISA signal value was determined in the AlphaScreen standard setting mode on the microplate reader EnVision(PerkinElmer, 2105). The standard curve was drawn by the AlphaLISA signal value of each concentration IL-6 standard solution, and then based on the corresponding concentration on the standard curve for the AlphaLISA signal value of the sample to be tested, the IL-6 concentration of each cell lysis supernatant was determined. Compared with the IL-6 concentration of the control group, the inhibition rate of the compound at each concentration was calculated, and then IC50 value of the compound was calculated by fitting the nonlinear curve with the logarithmic concentration-inhibition rate by GraphPad Prism 7.

[2] = target: T2, IRAK4 protein in THP-1 cells (Homo sapiens, UniProt Q9NWZ3); experiment: Degradation of IRAK4 in THP-1 cells (Western blot); type: cell-based; conditions: 24 hours, compound 1-3000 nM
T2 construct: endogenous in cells; host or cells: THP-1
T2 sequence (Q9NWZ3 1-460): T1 sequence (Q9NWZ3 1-460)
Outline: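 THP-1 cells (5×10^5/well) treated 24 h with compound at 1–3000 nM final. IRAK4 in lysates quantified by Western blot, normalized to internal reference and compared with control to give degradation rate; DC50 and Dmax from nonlinear fit of log concentration.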

| Structure (SMILES) | IC50 (IRAK4 kinase) [nM] | DC50 [2] [nM] | Dmax [2] [%] | IC50 [1] [nM] |
| --- | --- | --- | --- | --- |
| COc1cc2nn(C3CCN(CCN4CCC5(CC4)CCN(C(=O)c4ccc(OC)c(N6CCC(=O)NC6=O)c4)CC5)CC3)cc2cc1NC(=O)c1cccc(C(F)(F)F)n1 [Example 1, N-(2-(1-(2-(9-(3-(2,4-dioxotetrahydropyrimidin-1 (2H)-yl)-4-methoxybenzoyl)-3,9-diazaspiro[5.5]undec-3-yl)ethyl)piperidin-4-yl)-6-methoxy-2H-indazol-5-yl)-6-(trifluoromethyl)-2-pyridinecarboxamide] | 2.5 | 3 | 94.6 | 4.9 |
| COc1cc2nn(C3CCN(CC4CCC5(CC4)CCN(C(=O)c4ccc(Cl)c(N6CCC(=O)NC6=O)c4)CC5)CC3)cc2cc1NC(=O)c1cccc(C(F)(F)F)n1 [Example 32] | 28.5 | 5.1 | 96.9 | 9.7 |
| COc1cc2nn([C@H]3CC[C@H](CN(C)CCC4CCN(C(=O)c5ccc(Cl)c(N6CCC(=O)NC6=O)c5)CC4)CC3)cc2cc1NC(=O)c1cccc(C(F)(F)F)n1 [Example 49, N-(2-((1r,4r)-4-(((2-(1-(4-chloro-3-(2,4-dioxotetrahydro-pyrimidin-1 (2H)-yl)benzoyl)piperidin-4-yl)ethyl) (methyl)amino)methyl)cyclohexyl)-6-methoxy-2H-inda-zol-5-yl)-6-(tri-fluoromethyl) pyridinecarbox-amide] | 3.4 | 1.8 | 99.2 | 3.7 |
| COc1cc2nn([C@H]3CC[C@H](CCN4CCC5(CC4)CCN(C(=O)c4ccc(Cl)c(N6CCC(=O)NC6=O)c4)CC5)CC3)cc2cc1NC(=O)c1cccc(C(F)(F)F)n1 [Example 54, N-(2-((1r,4r)-4-(2-(9-(4-chloro-3-(2,4-dioxo-tetrahydropyrim-idin-1 (2H)-yl)benzoyl)-3,9-diazaspiro[5.5]undec-3-yl)ethyl)cyclohexyl)-6-methoxy-2H-inda-zol-5-yl)-6-(tri-fluoromethyl) pyridinecarbox-amide] | 7.5 | 1.4 | 98.9 | 2.6 |
| CN(CCC1CCN(C(=O)c2ccc(Cl)c(N3CCC(=O)NC3=O)c2)CC1)C[C@H]1CC[C@H](n2cc3cc(NC(=O)c4cccc(C(F)(F)F)n4)c(C(C)(C)O)cc3n2)CC1 [Example 55, N-(2-((1r,4r)-4-(((2-(1-(4-chloro-3-(2,4-dioxotetrahydro-pyrimidin-1 (2H)-yl)benzoyl)piperidin-4-yl)ethyl) (methyl)amino)methyl)cyclohexyl)-6-(2-hydroxyprop-2-yl)-2H-indazol-5-yl)-6-(trifluoro-methyl) pyridinecarbox-amide] | 10.6 | 2.7 | 98.1 | 0.8 |
| COc1cc2nn([C@H]3CC[C@H](N(C)C4CCC5(CC4)CCN(C(=O)c4ccc(Cl)c(N6CCC(=O)NC6=O)c4)CC5)CC3)cc2cc1NC(=O)c1cccc(C(F)(F)F)n1 [Example 56] | 3.6 | 3 | 97 | 3.2 |

Further lines, with some results ahead:

| IC50 (IRAK4 kinase) [nM] | DC50 [2] [nM] | Dmax [2] [%] | Structure (SMILES) | IC50 [1] [nM] |
| --- | --- | --- | --- | --- |
| 16.2 | 0.8 | 99.4 | CC(C)(O)c1cc2nn(C3CCN(CCC4CCC5(CC4)CCN(C(=O)c4ccc(Cl)c(N6CCC(=O)NC6=O)c4)CC5)CC3)cc2cc1NC(=O)c1cccc(C(F)(F)F)n1 [Example 28, N-(2-(1-(2-(3-(4-chloro-3-(2,4-dioxotetrahydro-pyrimidin-1 (2H)-yl)benzoyl)-3-azaspiro [5.5]undec-9-yl)ethyl)piperidin-4-yl)-6-(2-hydroxyprop-2-yl)-2H-indazol-5-yl)-6-(trifluoro-methyl) pyridinecarbox-amide] | 4.7 |
| 28.1 | 2.9 | 97.7 | CC(C)(O)c1cc2nn(C3CCN(CC4CCC5(CC4)CCN(C(=O)c4ccc(F)c(C6CCC(=O)NC6=O)c4)CC5)CC3)cc2cc1NC(=O)c1cccc(C(F)(F)F)n1 (stereo not drawn) [Example 41, N-(2-(1-((3-(3-(2,6-dioxopiperidin-3-yl)-4-fluoro-benzoyl)-3-azaspiro [5.5]undec-9-yl)methyl)piperidin-4-yl)-6-(2-hydroxyprop-2-yl)-2H-inda-zol-5-yl)-6-(triflu-oromethyl) pyridinecarbox-amide] | 5.1 |
| 6.3 | 5.9 | 96.3 | COc1cc2nn([C@H]3CC[C@H](CN(C)C4CCC5(CC4)CCN(C(=O)c4ccc(Cl)c(N6CCC(=O)NC6=O)c4)CC5)CC3)cc2cc1NC(=O)c1cccc(C(F)(F)F)n1 [Example 53, N-(2-((1r,4r)-4-(((3-(4-chloo-3-(2,4-dioxotetrahydro-pyrimidin-1 (2H)-yl)benzoyl)-3-azaspiro [5.5]undec-9-yl) (methyl)amino)methyl)cyclohexyl)-6-methoxy-2H-inda-zol-5-yl)-6-(triflu-oromethyl) pyridinecarbox-amide] | 2.8 |
